Several values for one entry are separate records, joined by “and”; a condition that tells them apart may be missing. Equal values may be shown once.

What all share (format): cell-based
Series [1] concerns WI-38 (normal lung fibroblast cells). The series is described as follows: MTT cytotoxicity assay, WI-38 normal cells. As to conditions: 48 h treatment, read-out: Cytotoxicity IC50 WI38. As to the method:
(§1) The cell lines PANC-1 (pancreatic carcinoma), MCF7 (breast carcinoma), HepG2 (hepatocellular carcinoma), and WI-38 (normal lung fibroblast cells) were obtained from the American Type Culture Collection (ATCC) located in Manassas, Virginia, United States. These cell lines were cultured in DMEM (Invitrogen, Life Technologies, Rockville, MD, USA) medium supplemented with 10% FBS (Fetal Bovine Serum, Hyclone, Thermo Fisher Scientific, Waltham, MA, USA) and 1% penicillin (Sigma-Aldrich, Louis, MO, USA). The cells were maintained at 37°C in a 5% CO2 and 95% humidity environment for a maximum period of two weeks to ensure their viability for further experimentation. […]
(§2) The cultivated cells were seeded in 96-well plates at a concentration of 1 × 10^4 cells/100 μL per well (Naik et al. [2014]). […] The viability of the cancer cells was determined by measuring the amount of formazan formed by viable cells. […] The intensity of the produced colour was measured using an ELISA plate reader (Bio-Tek EL 800, Agilent technology, Santa Clara, CA, USA) at wavelength of 570 nm. The percent of cells viability was calculated by the following equation: %viability=AA570oftreated-AA570ofblank/AA570ofcontrol-AA570ofblank×100
(§3) AA Average of triplicate absorbances for each sample concentration

Series [2] can be described thus: MTT cytotoxicity assay, WI-38 normal cells. The following applies: human, WI-38 normal lung fibroblast cells, 48 h treatment, read-out: Cytotoxicity IC50 WI38. How it is done:
as §1, §2, §3

The test system of series [3] is Bax gene expression in Panc1 cells. The series is described as follows: SYBR Green RT-PCR gene expression, Bax. As to conditions: 48 h, (Z)-3-hexenyl-β-D-glucopyranoside at 10 µM, control 1.436. How it is done:
(§4) The effects of 10 µM of (Z)-3-hexenyl-β-D-glucopyranoside on the mRNA expression of caspase3, bax, and Bcl-2 genes were investigated using the reverse transcription-polymerase […] technique. After a 48-hour incubation of (Z)-3-hexenyl-β-D-glucopyranoside in Panc1 (pancreatic carcinoma) cells, mRNA isolation of the selected proteins was performed using the RN easy extraction kit (Qiagen, Hilden, Germany), following previously described methods (Janicke et al. [1998]). For real-time quantitative PCR of the RNA templates, a one-step RT-PCR kit with SYBR® Green (Bio-Rad SYBR Green PCR MMX, Hercules, California, USA) was added to a 25 μL 2X SYBR® Green RT-PCR reaction mix (Bio-Rad, Hercules, California, USA). The reaction mix contained 2X reaction buffer with 0.4 mM of each dNTP, magnesium chloride, iTaq DNA polymerase, 20 nM fluorescein SYBR® Green I dye, stabilizers, 11 μL nuclease-free water, 1.5 μL reverse primer (10 μM), 1.5 μL forward primer (10 μM), 1 μL iScript reverse transcriptase, and RNA template (1 pg to 100 ng total RNA). The cDNA synthesis and PCR amplifications were performed in the same tube using Rotor-Gene RT-PCR (Qiagen, Hilden, Germany) software 1.7 (Abed et al. [2021]). The primers used in the RT-PCR reaction were obtained from Corbett Life Science Division (Reg. No. QEC21313), Corbett Research, Mortlake, Australia. […]

Series [4] concerns Bcl-2 gene expression in Panc1 cells. The series is described as follows: SYBR Green RT-PCR gene expression, Bcl-2. The following applies: 48 h, (Z)-3-hexenyl-β-D-glucopyranoside at 10 µM, control 1. How it is done: as §4
The subject of series [5] is Panc1 cells. The series is described as follows: Annexin V-FITC cellular apoptotic assay. As to conditions: 10 µM, 48 h. How it is done: The reagents used in this assay included the Annexin V-FITC kit (Abcam Technology, Boston, MA, USA), 1X binding buffer (Abcam Technology, Boston, MA, USA), and propidium iodide (Bio Vision Research Products, Mountain View, CA, USA). Panc1 cells were seeded in 6-well plates and incubated at 37 °C for 24 hours. Compound 1 ((Z)-3-hexenyl-β-D-glucopyranoside) was then added to the cultivated Panc1 6-well plates at a concentration of 10 µM and incubated for 48 hours. Subsequently, the cancer cells were trypsinized and centrifuged for 10 minutes at 300 rpm. The resulting precipitate was resuspended in 500 µL of 1X binding buffer. Annexin V-FITC (5 µL) and propidium iodide (5 µL) reagents were added to the treated cancer cell plates and incubated for 5 minutes in the dark at room temperature. A flow cytometer (Novocyte, Agilent technology, Santa Clara, CA, USA) with an excitation maximum of 488 nm and an emission maximum of 530 nm was employed to measure the intensity of annexin-binding phosphatidylserine (PS) and consequently determine the amount of apoptotic cells (Koopman et al. [1994]).

Series [6] concerns Casp3 gene expression in Panc1 cells. The series is described as follows: SYBR Green RT-PCR gene expression, caspase3. As to conditions: 48 h, (Z)-3-hexenyl-β-D-glucopyranoside at 10 µM, control 1. As to the method: as §4
Series [7] relates to HepG2 (hepatocellular carcinoma) cells. The series is described as follows: MTT cytotoxicity assay, HepG2. The following applies: Homo sapiens, 48 h treatment. How it is done: as §1, §2, §3
Series [8] has as its system Panc1 cells. The series is described as follows: Flow cytometry analysis of cell DNA contents / cell cycle (propidium iodide). The following applies: 10 µM. How it is done: All reagents and kits for this assay were obtained from Abcam (Abcam Technology, Boston, MA, USA). The detection of DNA cell contents and cell cycle status was conducted following the established method (Xu et al. [2001]). To provide a brief overview, Panc1 pancreatic cancer cells (ATCC, Manassas, Virginia, USA) were cultured in a single-cell suspension in DMEM medium (Invitrogen, Life Technologies, Rockville, MD, USA). Subsequently, the cells were fixed in 66% ethanol (Sigma-Aldrich, Louis, MO, USA) and kept on ice for 2 hours. Afterward, the cancer cells were washed with a PBS (Sigma-Aldrich, Louis, MO, USA) solution (5 mL of 10X PBS + 45 mL water), re-cultured in fresh medium, and incubated at 37 °C for 24 hours. A concentration of 10 µM of (Z)-3-hexenyl-β-D-glucopyranoside was added in triplicate, chosen based on previously reported data (Ponnusamy et al. [2016]; Xu et al. [2001]) for 24h. The second dose of 10 µM of (Z)-3-hexenyl-β-D-glucopyranoside was added to the Panc1 cells then incubated for 24 h. Following a 48-hour incubation period from the first dose, the cells were trypsinized, fixed, and stained with propidium iodide-RNase enzyme reagent (9.45 mL PBS + 500 μL 20X propidium iodide + 50 μL 200X RNase) from Abcam Technology, Boston, MA, USA. […] The incubation time for fluorescence quantification was 30 minutes. The experiment was repeated twice.

For series [9], the system named is MCF7 (breast carcinoma) cells. The series is described as follows: MTT cytotoxicity assay, MCF7. As to conditions: Homo sapiens, 48 h treatment. As to the method:
as §1, §2, §3

For series [10], the system named is Panc1 (pancreatic carcinoma) cells. The series is described as follows: MTT cytotoxicity assay, Panc1. The following applies: Homo sapiens, PANC-1, 48 h treatment. As to the method:
The cell lines PANC-1 (pancreatic carcinoma), MCF7 (breast carcinoma), HepG2 (hepatocellular carcinoma), and WI-38 (normal lung fibroblast cells) were obtained from the American Type Culture Collection (ATCC) located in Manassas, Virginia, United States. These cell lines were cultured in DMEM (Invitrogen, Life Technologies, Rockville, MD, USA) medium supplemented with 10% FBS (Fetal Bovine Serum, Hyclone, Thermo Fisher Scientific, Waltham, MA, USA) and 1% penicillin (Sigma-Aldrich, Louis, MO, USA). The cells were maintained at 37°C in a 5% CO2 and 95% humidity environment for a maximum period of two weeks to ensure their viability for further experimentation. Cell detachment was achieved using a solution containing 0.25% (w/v) trypsin (Sigma-Aldrich, Louis, MO, USA) and 0.53 mM EDTA ((Sigma-Aldrich, Louis, MO, USA), followed by re-cultivation in fresh media.
The cultivated cells were seeded in 96-well plates at a concentration of 1 × 10^4 cells/100 μL per well (Naik et al. [2014]). The cultured plates were then incubated for 24 hours at 37°C. […] The tested concentrations of the compounds (1, 10, 30, and 100 µg/mL) in 0.01 - 0.1% DMSO in ddH2O were prepared by diluting the stock solutions with double-distilled water (ddH2O). […] A negative control using 0.1% DMSO in ddH2O was also included. The treated cells were further incubated for 48 hours at 37 °C. The media of the treated and control plates were removed and replaced by fresh media containing MTT (Sigma, Louis, MO, USA) reagent in a concentration of 1 mg/mL (Ponnusamy et al. [2016]), then incubated for 2 hours. The viability of the cancer cells was determined by measuring the amount of formazan formed by viable cells. […] The intensity of the produced colour was measured using an ELISA plate reader (Bio-Tek EL 800, Agilent technology, Santa Clara, CA, USA) at wavelength of 570 nm. The percent of cells viability was calculated by the following equation: %viability=AA570oftreated-AA570ofblank/AA570ofcontrol-AA570ofblank×100
as §3

Regarding `CCC=CCCOC1OC(CO)C(O)C(O)C1O` [Compound 1, (Z)-3-hexenyl-β-D-glucopyranoside], the IC50 came out at 195 µM in [1], 45.8 µM in series [7], 109 µM in series [9] and 7.6 µM in [10]. Moreover, the IC50 at 48 h in [2] was 194 µM. Moreover, the “RT-PCR results fold change Bax” value in series [3] turned out to be 3.173 fold. Also, the “RT-PCR results fold change Bcl-2” value in series [4] amounted to 0.231 fold. In the series with Panc1 cells [5], this compound registered a Necrosis of 5.52%. The “Apoptosis Late” value with Panc1 cells [5] (control 0.28%) worked out at 9.85%. The “Apoptosis Early” value in the series on Panc1 cells [5] (control 0.47%) was 26.15%. Further, the “Apoptosis Total” value in the series with Panc1 cells [5] (control 1.86%) was 42% and 41.52%. For the same compound, the “RT-PCR results fold change Casp3” value in series [6] stood at 4.064 fold. Moreover, the figures for the “Cell cycle effect (Comment)” value in the series with Panc1 cells [8] and with Panc1 cells [8] (listed as E-W-4) were “cell growth arrest at the S phase” and “Cell growth arrest@ S phase”, respectively. In addition, the “DNA content %G2/M” value in the series on Panc1 cells [8] (control 10.47) was 3.38%. In the series on Panc1 cells [8] (control 32.11), the “DNA content %S” value is 44.01%. Further, the “DNA content %G0-G1” value in the series on Panc1 cells [8] (control 57.42) came to 52.61%.
Turning to `O=C(O)c1cc(O)c(O)c(O)c1` [Gallic acid], the IC50 in series [10] came out at 21.8 µM.
For the compound `Oc1cccc(O)c1O` [Pyrogallol], the IC50 in series [10] was 198 µM.

(Values after article PMC10933169, “Potent anticancer activity of (Z)-3-hexenyl-β-D-glucopyranoside in pancreatic cancer cells” (Naunyn-Schmiedeberg's Archives of Pharmacology, 2023).)
